Test [1] has as its system PP13 release from placental (villous) explants. The test is described as follows: PP13 release from placental (villous) explants cultured 48 hours (FIGS. 7-11). In kind it is cell-based, human. The protocol: The tissue of each woman was divided into 16 different portions, exposed each to diversified conditions and cultured for 48 hours;
The following results were obtained with placental (villous) explants from 16 cases of normal women, 12 cases of preeclampsia and 3 cases of HELLP women, which were cultured in DMEM/F12 for 48 hours at 6% or 20% O2. Conditioned media was collected after culture and tested for total protein and PP13. PP13 release was related to total protein.
The explants tested in Example 6 were retested using, in addition to the two oxygen levels, two different levels of magnesium, 0.7 mM and 1.4 mM.
Note that the latter combination also affected the HELLP cases. […]

Test [2] relates to PP13 release from placenta explants. In words: Therapeutic effectiveness on PP13 release from standardized placenta explants in presence of patient serum (indirect method). In kind it is cell-based, human. From the text:
Scenario 1: Simple Direct Tailoring with a Diversity of Drugs. • We have standardized culture conditions for first trimester explants or explants obtained after delivery. • Explants could be the ones made of patients after delivery or those obtained by Chorionic villi sampling (CVS) at gestational weeks 10-12 or other placenta biopsies as the case may be. • Standardization means defined median viability index, protein content in the explant, total protein released to the medium, PP13 content in the explant and PP13 release from the explant, among others. • Drug effect in-vitro is the effect of drug applied to the culture medium on PP13 release from the placenta explant after 24 hr to 7 days. The effect is compared to the baseline release as measured without the drug. • The Therapeutic Index is thus the in-vitro relative effectiveness of the drug when applied to explants as measured by the difference between PP13 release with (PP13D1) and without (PP130) the drug by the equation: (PP130−PP13D1)/PP130, after normalizing to viability, protein content etc as described above, given all other parameters are the same. • It is important to note that in the first trimester (gestational weeks 6-13) PP13 in diseased patient is lower than Normal. Thus the therapeutic index is to return PP13 release is calculated as drugs that elevate PP13 release. In the third trimester (gestational week 26 and above), PP13 is higher in preeclamptic patients than normal. Thus the therapeutic index is decreasing PP13 release back to Normal. • According to the in-vitro therapeutic index one drug or a drug combinations are selected for the in-vivo interventional medication treatment. • Follow up: after selecting the drug to be administrating to the patient, bi-weekly blood testing follow up is recommended to be carried out by measuring the PP13 in the blood and calculating
If so, drugs that appears beneficial to standardized culture explants wouldn't work when applied together with the patient samples. It can be seen that the serum from the patient at high risk for preeclampsia caused serious inhibition of many of the types of treatment.

A further test concerns PP13. In words: Serum PP13 values and 1st-to-2nd trimester slope in women treated with vitamin E (FIG. 4). The class given is in vivo, human. The protocol:
Unless otherwise indicated, in all experiments, PP13 was measured (blinded to pregnancy outcome) in maternal venous serum by solid-phase sandwich ELISA assay. The PP13 level was calibrated according to standard curves prepared from calibrated standards of recombinant PP13. Concentrations are given in pg PP13/ml serum.
The slope may be calculated as follows:
Slope=(PP13(2nd trimester)−PP13(1st trimester)/GW(2nd trimester)−GW(1st trimester)).
Normal vs. preeclampsia slopes are shown in FIG. 4, and the cutoff between normal and preeclampsia to reach 80% sensitivity is a slope of 3.5. The slope helps to further verify the risk for preeclampsia.
If after establishing the risk by two tests the women at high risk are treated daily by administering the anti-oxidant vitamin E, the treated women have a lower slope (FIG. 4). From the relatively large confidence level one can see that not all women were affected in the same way. Thus, the approach can be further used to enable one to see how the slope can be reduced by medications and its correlation to the reduced risk to develop the pathology, thereby considering discontinuing the treatment, elevating the drug level or selecting a different treatment for individual patients. The combined and contingent approaches indicate that multiple testing is necessary only for women at risk whereas low risk patients may avoid repeated testing.

In test [3] the test system is PP13 release from cultured chorionic villi. In words: PP13 release from cultured chorionic villi of GW 9-10 (48 hr culture, ELISA). The conditions noted are these: for PP13 (pg/ml) release: 48 hr. The class given is cell-based, human. The protocol:
From left to right, the explants are shown at transfer (6 hours) and after 36 hr in culture. Cultures are grown in conditioned medium. After 48 hr in culture, the supernatant is collected, centrifuged and the […] is diluted in PBS and checked for the concentration of PP13 by sandwich ELISA using PP13 standards to calibrate the reaction OD to PP13 concentration. The PP13 level may be normalized to the gestational age according to the linear regression of the total points and to the protein level of the explant; […] The placenta cells/explants were cultured for 48 hr and PP13 was measured in the culture medium by ELISA (in the same manner as described in FIG. 1).

Where [4] appears, read: applied with serum from a Normal Patient.
Where [5] appears, read: applied with serum from a Patient at high risk for preeclampsia.

As for `[Cl-].[Cl-].[Mg+2]` [Magnesium, MgCl2], the “Effect on PP13 release” value is on record as “elevated release of PP13” in test [1] (HELLP explants, hyperoxia (20%), increase in Mg (1.4 mM)); “elevated release of PP13” in test [1] (HELLP explants, normoxia (6%), elevated Mg (1.4 mM)); “not affected” in test [1] (explants from normal pregnant women, elevated oxygen (20%) and MgCl2 (1.4 mM)); “not in 6% oxygen” in test [1] (preeclamptic explants, magnesium 1.4 mM in 6% oxygen); “brought back to the normal level” in test [1] (preeclamptic explants, magnesium 1.4 mM in 20% oxygen). In addition, the entries for the “Therapeutic Effectiveness on PP13 release from placenta explants” value (“Therapeutic Effectiveness” below) in test [2] (setting [4]) and in test [2] (setting [5]) were 50% and 20%, respectively.
With aprotinin, in test [1] (HELLP explants, normoxia and high Mg (FIG. 11B)), the “Effect on PP13 release” value is “almost back to normal”.
Consider vitamin E, for which, in the test on PP13 (16-20 weeks, vitamin E), the “Effect on PP13” value is “no significant effect”. The “Effect on PP13 level/release” value in the test with PP13 (cases of preeclampsia, 6-10 weeks, early application of vitamin E) is listed as “doubles PP13 release towards the normal level”. For the same compound, the “Effect on PP13 release” value in the test on PP13 (normal patients, 6-10 weeks, vitamin E) is “without affecting PP13 release”; in the test on PP13 (preeclamptic women, 24-28 weeks, vitamin E), “reduces PP13 release back to the normal level”. In the test with PP13 (women at high risk treated daily with vitamin E), the “PP13 slope (1st-to-2nd trimester)” value is “lower slope”. The entries for the “Therapeutic Effectiveness” value in test [2] (setting [4]) and in test [2] (setting [5]) were 30% and 0%, respectively.
As to `O=C1O[C@H]([C@@H](O)CO)C(O)=C1O` [Vitamin C, vitamin C], the “Increase of PP13 release with vitamin C vs. without” value in test [3] (3 high risk women, 6% oxygen, 48 hours incubation) is on record as 3-4 times. In addition, the “PP13 (pg/ml) release” value in test [3] (Case 1, normal risk, 6% oxygen, with vitamin C) is 14,300 pg/ml; in test [3] (Case 1, normal risk, 20% oxygen, with vitamin C), 14990 pg/mL; in test [3] (Case 2, normal risk, 6% oxygen, with vitamin C) it was 15,390 pg/ml; in test [3] (Case 2, normal risk, 20% oxygen, with vitamin C) it was 15,300 pg/ml; in test [3] (Case 3, high-risk (preeclampsia), 6% oxygen, with vitamin C), 12,030 pg/ml; in test [3] (Case 3, high-risk (preeclampsia), 20% oxygen, with vitamin C) it was 5,100 pg/ml. Also, the “PP13 (pg/ml) release” value was 9,230 pg/ml in test [3] (Case 4, high-risk (preeclampsia), 6% oxygen, with vitamin C); 4,421 pg/ml in test [3] (Case 4, high-risk (preeclampsia), 20% oxygen, with vitamin C); 15760 pg/mL in test [3] (Case 5, high-risk (preeclampsia), 6% oxygen, with vitamin C); 15,790 pg/ml in test [3] (Case 5, high-risk (preeclampsia), 6% oxygen, with vitamin C, listed as vitamin C); 8,100 pg/ml in test [3] (Case 5, high-risk (preeclampsia), 20% oxygen, with vitamin C). Moreover, the “Additional effect of vitamin C on PP13 release under 20% oxygen” value in test [3] (high risk women, 20% oxygen (hyperoxia)) is “no additional effect”.
On to heparin, for which the “Effect on PP13 release” value in test [1] (hyperoxia and normal Mg (FIG. 11C)) is on record as “almost back to normal”. Further, the “Therapeutic Effectiveness” value is on record as 56% in test [2] (setting [4]) and 20% in test [2] (setting [5]).
`O=O` [Oxygen, oxygen]: the “Effect on PP13 release” value in test [1] (explants from HELLP cases, 20% vs 6% oxygen, 48 hours, listed as O2) is listed as “reduced by 20% O2 to below the normal level”; in test [1] (explants from HELLP cases, 20% vs 6% oxygen, 48 hours, listed as hyperoxia) it was “almost complete halt in PP13 release”; in test [1] (explants from normal women, 20% vs 6% oxygen, 48 hours), “no effect”; in test [1] (explants from normal women, 20% vs 6% oxygen, 48 hours, listed as hyperoxia) it was “remained at the same level”; in test [1] (explants from preeclampsia women, 20% vs 6% oxygen, 48 hours), “decreased significantly”; in test [1] (explants from preeclampsia women, 20% vs 6% oxygen, 48 hours, listed as hyperoxia) it was “significantly less PP13 release”. The “Increase of PP13 release under 20% oxygen compared to 6% oxygen” value in test [3] (3 high risk women, no vitamin C) was ~2 factor. The “PP13 (pg/ml) release” value was 14,250 pg/ml in test [3] (Case 1, normal risk, 20% oxygen (hyperoxia), no vitamin C); 15,500 pg/ml in test [3] (Case 2, normal risk, 20% oxygen (hyperoxia), no vitamin C); 5,000 pg/ml in test [3] (Case 3, high-risk (preeclampsia), 20% oxygen (hyperoxia), no vitamin C); 5000 pg/mL in test [3] (Case 3, high-risk (preeclampsia), 20% oxygen (hyperoxia), no vitamin C, listed as oxygen); 4,300 pg/ml in test [3] (Case 4, high-risk (preeclampsia), 20% oxygen (hyperoxia), no vitamin C); 7,900 pg/ml in test [3] (Case 5, high-risk (preeclampsia), 20% oxygen (hyperoxia), no vitamin C).

Values taken from US20080131867A1, “Method for Determining the Effectiveness of a Treatment for Preeclampsia” (priority 2006, published 2008).
